From patent US11105799B2, “Biomarkers of therapeutic responsiveness” (Meso Scale Technologies, LLC., priority 2009, dated 2021)

Columns and labels:
[1] = tested on: human 786-0 RCC cells; experiment: Tumor size of human 786-0 RCC xenografts in mice treated with sorafenib; format: in vivo; conditions: tumor approximately 12 mm diameter at start
Experimental: A panel of biomarkers was measured in RCC xenograft tissue extracts from mice. The mice were implanted with human 786-0 RCC cells and the cells were allowed to grow until a tumor of approximately 12 mm diameter was formed. The “Set A” group of mice received no drug treatment prior to removal of the xenograft tissue. The other two groups of mice—“Set C” and “Set D”—were treated with sorafenib prior to removal of the xenograft tissue. […] The “Set D” developed resistance to the drug and the tumor size increased to 16 mm in diameter during treatment.

[2] = tested on: human 786-0 RCC cells; experiment: Multiplex immunoassay of biomarker levels in RCC xenograft tissue extracts from mice; format: in vivo; conditions: for AMPKa1 Total marker concentration +/- SD / AMPKa1 p174 marker concentration +/- SD / AMPKa1 p285 marker concentration +/- SD / Gsk3b Phospho marker concentration +/- SD / Gsk3b Total marker concentration +/- SD / Mek1/2 Phospho marker concentration +/- SD / Mek1/2 Total marker concentration +/- SD: 1 ug protein/well; for STAT3 Phospho marker concentration +/- SD: 2 ug protein/well; for Hif1a Total marker concentration +/- SD: 4 ug protein/well
Experimental: A panel of biomarkers was measured in RCC xenograft tissue extracts from mice. The mice were implanted with human 786-0 RCC cells and the cells were allowed to grow until a tumor of approximately 12 mm diameter was formed. The “Set A” group of mice received no drug treatment prior to removal of the xenograft tissue.
Multiplex immunoassay kits were used for detection of total and/or phosphorylated biomarkers (supplied by Meso Scale Diagnostics, LLC, Gaithersburg, Md.). Levels of each biomarker were determined by calibration of the assays with were either purified calibrator proteins or using control cell lysates from appropriately treated cultured cell lines (e.g., cells subjected to conditions known to induce or reduce levels of a specific biomarker). Calibration curves were derived by testing serial dilutions of the calibrator lysates or purified proteins. Levels of biomarkers in test samples were back-calculated from the calibration curves and were expressed in terms of wt. of protein per weight of tissue extract (for purified calibrators) or in terms of weight of crude control lysate protein per well (for lysate calibrators). Titrations of tumor extracts were carried out to determine the linearity of the assay response to sample dilution and to select the sample dilution that would be appropriate to use for each assay panel.
In general, the assay format was as follows, with minor alterations for specific assay panels as indicated in the assay protocols provided with each assay kit (supplied by Meso Scale Diagnostics, LLC): (1) block MSD MULTI-SPOT® plate for 1 hour with appropriate MSD® blocking solution and wash; (2) add 25 μl assay diluent to each well, if specified; (3) add 25 μl calibrator, or sample (diluted as appropriate) to each well; (4) incubate with shaking for 1-3 hours (time as specified) and wash the well; (5) add 25 μl labeled detection antibody solution to each well; (6) incubate with shaking for 1-2 hours (time as specified) and wash the well; (7) add 150 μl MSD read buffer to each well; (8) read plate immediately on MSD SI6000 Reader (supplied by Meso Scale Diagnostics, LLC).

[3] = tested on: tumor vasculature; conditions: xenograft studies; cited from earlier work
[4] = tested on: GSK30; conditions: melanoma cells; cited from earlier work
[5] = Tumor Group C (treated), sensitive to sorafenib, 0.5 ug total protein/well
[6] = Tumor Group C (treated), sensitive to sorafenib
[7] = Tumor Group C (treated), sensitive to sorafenib, 2.5 ug protein/well
[8] = Tumor Group D (resistant), sorafenib treated, 0.5 ug total protein/well
[9] = Tumor Group D (resistant), sorafenib treated
[10] = Tumor Group D (resistant), sorafenib treated, 2.5 ug protein/well

SMILES: CNC(=O)c1cc(Oc2ccc(NC(=O)Nc3ccc(Cl)c(C(F)(F)F)c3)cc2)ccn1 [sorafenib]
- tumor size ([1]; Set C, sensitive): tumor size decreased
- tumor size (diameter) during treatment ([1]; Set D, developed resistance): 16 mm
- Akt Phospho marker concentration +/- SD [2, 5]: 348 +/− 85 ng calibrator lysate protein/w
- Akt Total marker concentration +/- SD [2, 5]: 142 +/− 43 ng calibrator lysate protein/w
- Erk1/2 Phospho marker concentration +/- SD [2, 5]: 102 +/− 45 ng calibrator lysate protein/w
- Met Phospho marker concentration +/- SD [2, 5]: 34 +/− 7 ng calibrator lysate protein/w
- Met Total marker concentration +/- SD [2, 5]: 850 +/− 375 ng calibrator lysate protein/w
- p21 Total marker concentration +/- SD [2, 5]: 1.1 +/− 0.3 pg/ug tumor protein
- p38 Total marker concentration +/- SD [2, 5]: 449 +/− 266 ng calibrator lysate protein/w
- AMPKa1 Total marker concentration +/- SD [2, 6]: 29 +/− 13 pg/ug tumor protein
- AMPKa1 p174 marker concentration +/- SD [2, 6]: 7.3 +/− 4.4 pg/ug tumor protein
- AMPKa1 p285 marker concentration +/- SD [2, 6]: 29 +/− 15 pg/ug tumor protein
- Gsk3b Phospho marker concentration +/- SD [2, 6]: 1188 +/− 446 ng calibrator lysate protein/w
- Gsk3b Total marker concentration +/- SD [2, 6]: 3771 +/− 1491 ng calibrator lysate protein/w
- Mek1/2 Phospho marker concentration +/- SD [2, 6]: 116 +/− 21 ng calibrator lysate protein/w
- Mek1/2 Total marker concentration +/- SD [2, 6]: 350 +/− 90 ng calibrator lysate protein/w
- STAT3 Phospho marker concentration +/- SD [2, 6]: 65 +/− 16 ng calibrator lysate protein/w
- Jnk Phospho marker concentration +/- SD [2, 7]: 74 +/− 29 ng calibrator lysate protein/w
- Jnk Total marker concentration +/- SD [2, 7]: 983 +/− 356 ng calibrator lysate protein/w
- PlGF Total marker concentration +/- SD [2, 7]: 0.083 +/− 0.031 pg/ug tumor protein
- VEGFR-1 Total marker concentration +/- SD [2, 7]: 0.26 +/− 0.08 pg/ug tumor protein
- bFGF Total marker concentration +/- SD [2, 7]: 2.1 +/− 0.6 pg/ug tumor protein
- Hif1a Total marker concentration +/- SD [2, 6]: 19 +/− 3 ng calibrator lysate protein/w
- Akt Phospho marker concentration +/- SD [2, 8]: 354 +/− 84 ng calibrator lysate protein/w
- Akt Total marker concentration +/- SD [2, 8]: 93 +/− 25 ng calibrator lysate protein/w
- Erk1/2 Phospho marker concentration +/- SD [2, 8]: 206 +/− 103 ng calibrator lysate protein/w
- Erk1/2 Total marker concentration +/- SD [2, 8]: 486 +/− 306 ng calibrator lysate protein/w
- Met Phospho marker concentration +/- SD [2, 8]: 41 +/− 6 ng calibrator lysate protein/w
- Met Total marker concentration +/- SD [2, 8]: 595 +/− 137 ng calibrator lysate protein/w
- p21 Total marker concentration +/- SD [2, 8]: 2.2 +/− 0.9 pg/ug tumor protein
- p38 Total marker concentration +/- SD [2, 8]: 428 +/− 227 ng calibrator lysate protein/w
- AMPKa1 Total marker concentration +/- SD [2, 9]: 26 +/− 10 pg/ug tumor protein
- AMPKa1 p174 marker concentration +/- SD [2, 9]: 3.8 +/− 0.9 pg/ug tumor protein
- AMPKa1 p285 marker concentration +/- SD [2, 9]: 19 +/− 5 pg/ug tumor protein
- Gsk3b Phospho marker concentration +/- SD [2, 9]: 1474 +/− 294 ng calibrator lysate protein/w
- Gsk3b Total marker concentration +/- SD [2, 9]: 3829 +/− 1058 ng calibrator lysate protein/w
- Mek1/2 Phospho marker concentration +/- SD [2, 9]: 113 +/− 24 ng calibrator lysate protein/w
- Mek1/2 Total marker concentration +/- SD [2, 9]: 359 +/− 103 ng calibrator lysate protein/w
- STAT3 Phospho marker concentration +/- SD [2, 9]: 41 +/− 10 ng calibrator lysate protein/w
- Jnk Phospho marker concentration +/- SD [2, 10]: 110 +/− 22 ng calibrator lysate protein/w
- Jnk Total marker concentration +/- SD [2, 10]: 878 +/− 231 ng calibrator lysate protein/w
- PlGF Total marker concentration +/- SD [2, 10]: 0.144 +/− 0.073 pg/ug tumor protein
- VEGF Total marker concentration +/- SD [2, 10]: 26 +/− 15 pg/ug tumor protein
- VEGFR-1 Total marker concentration +/- SD [2, 10]: 0.39 +/− 0.14 pg/ug tumor protein
- bFGF Total marker concentration +/- SD [2, 10]: 2.6 +/− 1.3 pg/ug tumor protein
- Hif1a Total marker concentration +/- SD [2, 9]: 14 +/− 3 ng calibrator lysate protein/w
- effect on tumor vasculature [3]: reduction in tumor vasculature
- effect on GSK3β activity [4]: activates GSK30
